Among the data in US20090111854A1, “1,2,4-TRIAZOLE ARYL N-OXIDES DERIVATIVES AS MODULATORS OF MGLUR5” (AstraZeneca AB, priority 2007, published 2009) are IC50 and Kp values, retold here.

One data set has as its target T1, human mGluR5d (Homo sapiens, UniProt P41594).
T1 construct: expressed in transfected cells; The culture medium contains hygromycin B and Zeocin as selection agents; The separate IP3 assay names 'GHEK stably expressing the human mGluR5d'
The data set is described as follows: FLIPR assay, functional assessment of mGluR5 antagonism (intracellular calcium mobilization). Type of data set: cell-based. Conditions: cells expressing human mGluR5d; read-out: FLIPR hmGluR5d. The text has this: Functional Assessment of mGluR5 Antagonism it Cell Lines Expressing mGluR5D
The properties of the compounds of the invention can be analyzed using standard assays for pharmacological activity. Examples of glutamate receptor assays are well known in the art as described in for example Aramori et al., Neuron 8:757 (1992), Tanabe et al., Neuron 8:169 (1992), Miller et al., J. Neuroscience 15: 6103 (1995), Balazs, et al., J. Neurochemistry 69:151 (1997). The methodology described in these publications is to incorporated herein by reference. Conveniently, the compounds of the invention can be studied by means of an assay (FLIPR) that measures the mobilization of intracellular calcium, [Ca^2+]i in cells expressing mGluR5 or another assay (IP3) that measures inositol phosphate turnover.
Cells expressing human mGluR5d as described in WO97/05252 cultured in a mixture of high glucose DMEM with Glutamax (31966-021) (500 mL), 10% dialyzed fetal bovine serum (Hyclone #SH30079.03)(56 mL), 200 μg/mL Hygromycin B (Invitrogen 45-0430, 50 mg/mL) (2.2 mL), 200 μg/mL Zeocin (Invitrogen #R250-01; 100 mg/mL)(1.1 mL) are seeded at a density of 100,000 cells per well on collagen coated clear bottom 96-well plates with black sides and cells were allowed to adhere over night before experiments. All assays are done in a buffer containing 146 mM NaCl, 5 mM KCl, 1 mM MgCl2, 1 mM CaCl2, 20 mM HEPES, 1 mg/mL glucose and 1 mg/mL BSA Fraction IV (pH 7.4). Cell cultures in the 96-well plates are loaded for 60 minutes in the above mentioned buffer containing 6 μM of the acetoxymethyl ester form of the fluorescent calcium indicator fluo-3 (Molecular Probes, Eugene, Oreg.) in 0.025% pluronic acid (a proprietary, non-ionic surfactant polyol—CAS Number 9003-11-6). […] The fluorescence signal is sampled 50 times at 1-second intervals followed by 3 samples at 5-second intervals immediately after each of the two additions. Responses are measured as the difference between the peak heights of the response to agonist, less the background fluorescence within the sample period. […]

Data set [1] can be described thus: Determination of brain to plasma ratio in rat. In kind it is in vivo, female Sprague Dawley rats. Conditions: female, Sprague Dawley, brain and plasma, read-out: Brain/Plasma Ratio of compound in Rat. As to the method: Brain to plasma ratios are estimated in female Sprague Dawley rats. The compound is dissolved in water or another appropriate vehicle. For determination of brain to plasma ratio the compound is administrated as a subcutaneous, or an intravenous bolus injection, or an intravenous infusion, or an oral administration. At a predetermined time point after the administration a blood sample is taken with cardiac puncture. The rat is terminated by cutting the heart open, and the brain is immediately retained. The blood samples are collected in heparinized tubes and centrifuged within 30 minutes, in order to separate the plasma from the blood cells. The plasma is transferred to 96-well plates and stored at −20° C. until analysis. The brains are divided in half, and each half is placed in a pre-tarred tube and stored at −20° C. until analysis. Prior to the analysis, the brain samples are thawed and 3 mL/g brain tissue of distilled water is added to the tubes. The brain samples are sonicated in an ice bath until the samples are homogenized. Both brain and plasma samples are precipitated with acetonitrile. After centrifugation, the supernatant is diluted with 0.2% formic acid. Analysis is performed on a short reversed-phase HPLC column with rapid gradient elution and MSMS detection using a triple quadrupole instrument with electrospray ionisation and Selected Reaction Monitoring (SRM) acquisition. Liquid-liquid extraction may be used as an alternative sample clean-up. The samples are extracted, by shaking, to an organic solvent after addition of a suitable buffer. An aliquot of the organic layer is transferred to a new vial and evaporated to dryness under a stream of nitrogen. After reconstitution of the residuals the samples are ready for injection onto the HPLC column.

The structures appear in SMILES notation.

T1 sequence (P41594 21-942 isoform P41594-3 limits assumed): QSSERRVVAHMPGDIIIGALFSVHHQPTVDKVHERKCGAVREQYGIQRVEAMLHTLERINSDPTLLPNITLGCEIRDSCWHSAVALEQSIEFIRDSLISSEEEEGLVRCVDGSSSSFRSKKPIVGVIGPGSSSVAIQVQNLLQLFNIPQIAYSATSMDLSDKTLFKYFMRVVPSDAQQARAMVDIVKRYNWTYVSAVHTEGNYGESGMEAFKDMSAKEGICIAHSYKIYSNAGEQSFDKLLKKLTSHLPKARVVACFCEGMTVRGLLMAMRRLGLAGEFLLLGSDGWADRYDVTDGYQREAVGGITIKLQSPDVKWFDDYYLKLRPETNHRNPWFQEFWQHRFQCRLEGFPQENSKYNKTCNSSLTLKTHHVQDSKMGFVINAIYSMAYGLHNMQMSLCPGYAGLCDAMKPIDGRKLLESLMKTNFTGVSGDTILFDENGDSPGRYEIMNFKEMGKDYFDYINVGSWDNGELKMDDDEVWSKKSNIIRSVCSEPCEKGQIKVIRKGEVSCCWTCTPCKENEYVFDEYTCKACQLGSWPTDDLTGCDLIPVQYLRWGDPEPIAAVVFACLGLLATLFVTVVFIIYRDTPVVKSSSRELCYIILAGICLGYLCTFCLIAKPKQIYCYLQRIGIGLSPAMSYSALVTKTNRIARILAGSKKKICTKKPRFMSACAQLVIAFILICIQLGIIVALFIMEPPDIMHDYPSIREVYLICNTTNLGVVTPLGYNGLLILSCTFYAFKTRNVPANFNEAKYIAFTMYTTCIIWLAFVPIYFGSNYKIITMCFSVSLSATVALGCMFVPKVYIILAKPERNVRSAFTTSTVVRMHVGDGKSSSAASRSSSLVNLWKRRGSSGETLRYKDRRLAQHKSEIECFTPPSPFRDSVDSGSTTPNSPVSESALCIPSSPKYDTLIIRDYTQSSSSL

For `Cn1c(-c2ccc[n+]([O-])c2)nnc1N1CCCC[C@@H]1c1nnn(-c2cccc(Cl)c2)n1` [Example 5, 3-(5-{(2R)-2-[2-(3-chlorophenyl)-2H-tetrazol-5-yl]piperidin-1-yl}-4-methyl-4H-1,2,4-triazol-3-yl)pyridine 1-oxide], the IC50 at human mGluR5d amounted to 49 nM. The Kp in data set [1] was under 0.015.

For the molecule `C[C@@H](c1noc(-c2cccc(Cl)c2)n1)N(C)c1nnc(-c2cc[n+]([O-])cc2)n1C` [Example 4, N-{(1S)-1-[5-(3-chlorophenyl)-1,2,4-oxadiazol-3-yl]ethyl}-N,4-dimethyl-5-(1-oxidopyridin-4-yl)-4H-1,2,4-triazol-3-amine], the IC50 at human mGluR5d came out at 81 nM. Besides, in data set [1], the Kp amounted to 0.01.

`Cn1c(-c2ccc[n+]([O-])c2)nnc1N1CCC[C@@H]1c1nnn(-c2cccc(Cl)c2)n1` [Example 6, 3-(5-{(2R)-2-[2-(3-chlorophenyl)-2H-tetrazol-5-yl]pyrrolidin-1-yl}-4-methyl-4H-1,2,4-triazol-3-yl)pyridine 1-oxide]: the IC50 on human mGluR5d worked out at 108 nM. In addition, the Kp in data set [1] is under 0.01.
